Data as given in patent US6737383B1, “Herbicidal oxadiazolidines” (priority 1999, dated 2004).

Key:
bedstraw = assay: Test B pre/postemergence bedstraw; type: in vivo, Galium aparine; settings: Preemergence; for Bedstraw plant response rating: scale 0 to 10, 0 is no effect, 10 is complete control
Summary of the method: (§1)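 Test chemicals in a non-phytotoxic solvent mixture with surfactant were sprayed preemergence onto planted seeds and postemergence onto plants 2 to 18 cm tall (1- to 4-leaf stage). After twelve to sixteen days in a greenhouse, injury was visually rated against untreated controls from 0 (no effect) to 10 (complete control).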

blackgrass = assay: Test B pre/postemergence blackgrass; type: in vivo, Alopecurus myosuroides
Summary of the method: as §1

surinam grass = assay: Test B pre/postemergence surinam grass; type: in vivo, Brachiaria decumbens
Summary of the method: as §1

cocklebur = assay: Test B pre/postemergence cocklebur; type: in vivo, Xanthium strumarium
Summary of the method: as §1

corn = assay: Test B pre/postemergence corn; type: in vivo, Zea mays
Summary of the method: as §1

crabgrass = assay: Test B pre/postemergence crabgrass; type: in vivo, Digitaria sanguinalis
Summary of the method: as §1

giant foxtail = assay: Test B pre/postemergence giant foxtail; type: in vivo, Setaria faberii
Summary of the method: as §1

morningglory = assay: Test B pre/postemergence morningglory; type: in vivo, Ipomoea hederacea
Summary of the method: as §1

pigweed = assay: Test B pre/postemergence pigweed; type: in vivo, Amaranthus retroflexus
Summary of the method: as §1

rape = assay: Test B pre/postemergence rape; type: in vivo, Brassica napus
Summary of the method: as §1

soybean = assay: Test B pre/postemergence soybean; type: in vivo, Glycine max
Summary of the method: as §1

sugar beet = assay: Test B pre/postemergence sugar beet; type: in vivo, Beta vulgaris
Summary of the method: as §1

velvetleaf = assay: Test B pre/postemergence velvetleaf; type: in vivo, Abutilon theophrasti
Summary of the method: as §1

wheat = assay: Test B pre/postemergence wheat; type: in vivo, Triticum aestivum
Summary of the method: as §1

wild oat = assay: Test B pre/postemergence wild oat; type: in vivo, Avena fatua
Summary of the method: as §1

purple nutsedge = assay: Test B pre/postemergence purple nutsedge; type: in vivo, Cyperus rotundus
Summary of the method: as §1

[1] = Postemergence, Rate 62 g/ha, scale of 0 to 10, 0 is no effect, 10 is complete control
[2] = Postemergence, Rate 125 g/ha, scale 0 to 10, 0 is no effect, 10 is complete control
[3] = Postemergence, Rate 250 g/ha, scale 0 to 10
[4] = Postemergence, Rate 500 g/ha, scale 0 to 10, 0 is no effect, 10 is complete control
[5] = Preemergence, Rate 62 g/ha, scale of 0 to 10 where 0 is no effect and 10 is complete control
[6] = Preemergence, Rate 125 g/ha, scale 0 to 10, 0 is no effect, 10 is complete control
[7] = Preemergence, Rate 250 g/ha, scale 0 to 10, 0 is no effect, 10 is complete control
[8] = Preemergence, Rate 500 g/ha, scale of 0 to 10 where 0 is no effect and 10 is complete control

COCCOCn1c(=O)on(C(=O)N(c2ccc(F)cc2F)C(C)C)c1=O [Compound 505]
Plant response rating, Bedstraw (bedstraw; Rate 62 g/ha, scale of 0 to 10 where 0 is no effect and 10 is complete control): 0 | Bedstraw plant response rating (bedstraw; Rate 125 g/ha): 0 | Bedstraw plant response rating (bedstraw; Rate 250 g/ha): 8 | Bedstraw plant response rating (bedstraw; Rate 500 g/ha): 9 | Blackgrass plant response rating (blackgrass; [1]): 2 | Blackgrass plant response rating (blackgrass; [2]): 4 | Blackgrass plant response rating (blackgrass; [3]): 7 | Plant response rating, Blackgrass (blackgrass; [4]): 7 | Plant response rating, Blackgrass (blackgrass; [5]): 0 | Blackgrass plant response rating (blackgrass; [6]): 6 | Blackgrass plant response rating (blackgrass; [7]): 7 | Blackgrass plant response rating (blackgrass; [8]): 6 | B. signalgrass plant response rating (surinam grass; [1]): 0 | B. signalgrass plant response rating (surinam grass; [2]): 3 | B. signalgrass plant response rating (surinam grass; Postemergence, Rate 250 g/ha, scale 0 to 10, 0 no effect, 10 complete control): 8 | Plant response rating, B. signalgrass (surinam grass; [4]): 8 | Plant response rating, B. signalgrass (surinam grass; [5]): 0 | B. signalgrass plant response rating (surinam grass; [7]): 2 | B. signalgrass plant response rating (surinam grass; Preemergence, Rate 500 g/ha, scale 0 to 10, 0 is no effect, 10 is complete control): 6 | Cocklebur plant response rating (cocklebur; [1]): 0 | Cocklebur plant response rating (cocklebur; [2]): 0 | Cocklebur plant response rating (cocklebur; [3]): 0 | Plant response rating, Cocklebur (cocklebur; [4]): 4 | Plant response rating, Cocklebur (cocklebur; [5]): 0 | Cocklebur plant response rating (cocklebur; [6]): 0 | Cocklebur plant response rating (cocklebur; [7]): 0 | Cocklebur plant response rating (cocklebur; [8]): 2 | Corn plant response rating (corn; [1]): 0 | Corn plant response rating (corn; [2]): 3 | Corn plant response rating (corn; [3]): 6 | Plant response rating, Corn (corn; [4]): 6 | Plant response rating, Corn (corn; [5]): 2 | Corn plant response rating (corn; [6]): 2 | Corn plant response rating (corn; [8]): 6 | Crabgrass plant response rating (crabgrass; [1]): 7 | Crabgrass plant response rating (crabgrass; [2]): 7 | Crabgrass plant response rating (crabgrass; [3]): 9 | Plant response rating, Crabgrass (crabgrass; [4]): 9 | Crabgrass plant response rating (crabgrass; [6]): 6 | Crabgrass plant response rating (crabgrass; [8]): 8 | Giant foxtail plant response rating (giant foxtail; [1]): 8 | Giant foxtail plant response rating (giant foxtail; [2]): 8 | Plant response rating, Giant foxtail (giant foxtail; [4]): 9 | Plant response rating, Giant foxtail (giant foxtail; [5]): 9 | Giant foxtail plant response rating (giant foxtail; [6]): 9 | Giant foxtail plant response rating (giant foxtail; [8]): 10 | Morningglory plant response rating (morningglory; [1]): 5 | Morningglory plant response rating (morningglory; [2]): 5 | Plant response rating, Morningglory (morningglory; [4]): 7 | Plant response rating, Morningglory (morningglory; [5]): 0 | Morningglory plant response rating (morningglory; [6]): 0 | Morningglory plant response rating (morningglory; [8]): 3 | Redroot pigweed plant response rating (pigweed; [1]): 0 | Redroot pigweed plant response rating (pigweed; [2]): 0 | Plant response rating, Redroot pigweed (pigweed; [4]): 9 | Plant response rating, Redroot pigweed (pigweed; [5]): 9 | Redroot pigweed plant response rating (pigweed; [6]): 10 | Redroot pigweed plant response rating (pigweed; [8]): 10 | Rape plant response rating (rape; [1]): 0 | Rape plant response rating (rape; [2]): 0 | Plant response rating, Rape (rape; [4]): 2 | Plant response rating, Rape (rape; [5]): 4 | Rape plant response rating (rape; [6]): 4 | Rape plant response rating (rape; [8]): 9 | Soybean plant response rating (soybean; [1]): 1 | Soybean plant response rating (soybean; [2]): 2 | Plant response rating, Soybean (soybean; [4]): 5 | Plant response rating, Soybean (soybean; [5]): 0 | Soybean plant response rating (soybean; [6]): 0 | Soybean plant response rating (soybean; [8]): 5 | Sugarbeets plant response rating (sugar beet; [1]): 3 | Sugarbeets plant response rating (sugar beet; [2]): 5 | Plant response rating, Sugarbeets (sugar beet; [4]): 9 | Plant response rating, Sugarbeets (sugar beet; [5]): 3 | Sugarbeets plant response rating (sugar beet; [6]): 3 | Sugarbeets plant response rating (sugar beet; [8]): 8 | Velvetleaf plant response rating (velvetleaf; [1]): 0 | Velvetleaf plant response rating (velvetleaf; [2]): 0 | Plant response rating, Velvetleaf (velvetleaf; [4]): 4 | Plant response rating, Velvetleaf (velvetleaf; [5]): 0 | Velvetleaf plant response rating (velvetleaf; [6]): 2 | Velvetleaf plant response rating (velvetleaf; [8]): 10 | Wheat plant response rating (wheat; [1]): 0 | Wheat plant response rating (wheat; [2]): 2 | Plant response rating, Wheat (wheat; [4]): 4 | Plant response rating, Wheat (wheat; [5]): 3 | Wheat plant response rating (wheat; [6]): 7 | Wheat plant response rating (wheat; [8]): 8 | Wild oats plant response rating (wild oat; [1]): 0 | Wild oats plant response rating (wild oat; [2]): 2 | Plant response rating, Wild oats (wild oat; [4]): 3 | Plant response rating, Wild oats (wild oat; [5]): 2 | Wild oats plant response rating (wild oat; [6]): 2 | Wild oats plant response rating (wild oat; [8]): 9 | Nutsedge plant response rating (purple nutsedge; [1]): 0 | Nutsedge plant response rating (purple nutsedge; [2]): 2 | Plant response rating, Nutsedge (purple nutsedge; [4]): 2 | Plant response rating, Nutsedge (purple nutsedge; [5]): 3 | Nutsedge plant response rating (purple nutsedge; [6]): 10 | Nutsedge plant response rating (purple nutsedge; [8]): 8
